This experiment addresses T1, Kv7.2/7.3 (Homo sapiens, UniProt O43525+O43526).
T1 construct: host or cells: HEK cells, tetracycline-inducible expression
Nature of the experiment: Kv7.2/7.3 activation assay, QPatch planar patch-clamp, single concentration screen. On the set-up: key: <1.2-fold increase over baseline (−); +/−: as a range from <1.2-fold increase over baseline (−) up to >6-fold increase over baseline (+++); as a range from <1.2-fold increase over baseline (−) up to >6-fold increase over baseline (+++); as a range from <1.2-fold increase over baseline (−) up to >6-fold increase over baseline (+++); >6-fold increase over baseline (+++). Particulars: Kv7.2/Kv7.3 co-expressing HEK cells, compound 3 μM, steady-state current at end of 2 s pulse to −30 mV. In kind it is cell-based.

Consider `CC(C)(O)c1ccc2nc(NC(=O)C3CC34CC4)n(-c3ccc(F)cc3)c2c1` (stereo not shown) [Example 109, N-(1-(4-fluorophenyl)-6-(2-hydroxypropan-2-yl)-1H-benzo[d]imidazol-2-yl)spiro[2.2]pentane-1-carboxamide], for which the “Kv7.2/7.3 Activity: increase in current over baseline” value (“Kv7.2/7.3 Activity: increase” for short) is reported as “+”.

As to `C[C@H](C(=O)Nc1nc2ccc(C(C)(C)O)cc2n1C1CCC1)C(C)(C)C` [Example 86, (S)-N-(1-cyclobutyl-6-(2-hydroxypropan-2-yl)-1H-benzo[d]imidazol-2-yl)-2,3,3-trimethylbutanamide], the “Kv7.2/7.3 Activity: increase” value is recorded as “+++ (>6-fold increase over baseline (+++))”.

With `C[C@H](C(=O)Nc1nc2ccc(C#N)cc2n1C1CCC1)N(C)CC(F)(F)F` [Example 22, (R)-N-(6-cyano-1-cyclobutyl-1H-benzo[d]imidazol-2-yl)-2-(methyl(2,2,2-trifluoroethyl)amino)propanamide], the “Kv7.2/7.3 Activity: increase” value is recorded as “+/−”.

Consider `C[C@H](C(=O)Nc1nc2ccc(C#N)cc2n1C1CCC1)C1(O)CCC1` [Example 27, (S)-N-(6-cyano-1-cyclobutyl-1H-benzo[d]imidazol-2-yl)-2-(1-hydroxycyclobutyl)propanamide], for which the “Kv7.2/7.3 Activity: increase” value is given as “+/−”.

Turning to `COc1ccc2nc(NC(=O)[C@@H](C)C(C)C)n(C(C)C)c2c1` [Example 4, (S)-N-(1-isopropyl-6-methoxy-1H-benzo[d]imidazol-2-yl)-2,3-dimethylbutanamide], the “Kv7.2/7.3 Activity: increase” value is “+/−”.

As for `CC(C)[C@@H](C)C(=O)Nc1nc2ccc(C#N)cc2n1C1CCC1` [Example 14, (R)-N-(6-cyano-1-cyclobutyl-1H-benzo[d]imidazol-2-yl)-2,3-dimethylbutanamide], the “Kv7.2/7.3 Activity: increase” value is “+/−”.

On to `CC(C)(O)CC(=O)Nc1nc2ccc(C#N)cc2n1C1CCC1` [Example 8, N-(6-cyano-1-cyclobutyl-1H-benzo[d]imidazol-2-yl)-3-hydroxy-3-methylbutanamide], for which the “Kv7.2/7.3 Activity: increase” value is on record as “+”.

With `O=C(CC1(O)CCC1)Nc1nc2ccc(C(F)(F)F)cc2n1-c1cc(F)cc(F)c1` [Example 141, N-(1-(3,5-difluorophenyl)-6-(trifluoromethyl)-1H-benzo[d]imidazol-2-yl)-2-(1-hydroxycyclobutyl)acetamide], the “Kv7.2/7.3 Activity: increase” value was “+”.

Turning to `CCOC(=O)Cc1ccc2nc(NC(=O)CC(C)(C)C)n(-c3ccc(F)cc3)c2c1F` [Example 112, ethyl 2-(2-(3,3-dimethylbutanamido)-7-fluoro-1-(4-fluorophenyl)-1H-benzo[d]imidazol-6-yl)acetate], the “Kv7.2/7.3 Activity: increase” value was “++”.

As to `CC(C)(O)CC(=O)Nc1nc2ccc(C(F)(F)F)cc2n1-c1cc(F)cc(F)c1` [Example 136, N-(1-(3,5-difluorophenyl)-6-(trifluoromethyl)-1H-benzo[d]imidazol-2-yl)-3-hydroxy-3-methylbutanamide], the “Kv7.2/7.3 Activity: increase” value is listed as “+”.

On to `C[C@](O)(C(=O)Nc1nc2ccc(C#N)cc2n1C1CCC1)C(F)(F)F` [Example 16, (S)-N-(6-cyano-1-cyclobutyl-1H-benzo[d]imidazol-2-yl)-3,3,3-trifluoro-2-hydroxy-2-methylpropanamide], for which the “Kv7.2/7.3 Activity: increase” value is reported as “+/−”.

With `C[C@](O)(CC(=O)Nc1nc2ccc(C(F)(F)F)cc2n1C1CCC1)c1ccccc1` [Example 88, (S)-N-(1-cyclobutyl-6-(trifluoromethyl)-1H-benzo[d]imidazol-2-yl)-3-hydroxy-3-phenylbutanamide], the “Kv7.2/7.3 Activity: increase” value is given as “+”.

For `O=C(CC(O)(C1CC1)C1CC1)Nc1nc2ccc(C(F)(F)F)cc2n1C1CCC1` [Example 98, N-(1-cyclobutyl-6-(trifluoromethyl)-1H-benzo[d]imidazol-2-yl)-3,3-dicyclopropyl-3-hydroxypropanamide], the “Kv7.2/7.3 Activity: increase” value is reported as “+”.

The record behind these values is patent publication US12351559B2 (Biohaven Therapeutics Ltd., priority 2014, dated 2025).
